Holding throughout (type): physicochemical
Data set [1] can be described thus: Colour stability test, stress conditions: storage at 40° C. As to conditions: stored at 40° C. On the procedure: The CIE b value was determined using a X-Rite® 918 apparatus (X-Rite Incorporated, 4300 44th St. SE, Grand Rapids, Mich. 49512 USA). A sample of 2 g of cefadroxil crystals was placed at the appropriate place of the apparatus and the CIE b value was read. The average of two separate readings was calculated. Cefadroxil (CDX) monohydrate crystals obtained by the one-step crystallisation process of the Reference Experiment A and the two-step crystallisation process according to the present invention were stored at a temperature of 40° C. The CIE b values of the different cefadroxil monohydrate crystals were determined at different time intervals as indicated in Table 1. CDX (1)-(3) were obtained from 3 different crystallisation processes.

Data set [2] in a line: Determination of the CIE b value (colour of crystals) after crystallisation. As to conditions: crystals after isolation and drying, t=0; monohydrate. On the procedure: CIE is an abbreviation for the French title of the International Commission on Illumination: “Commission International de l'Eclairage”. The CIE b is a measure to determine the colour of crystals, which is a known technology for the skilled man in the art. An overview of the fundamentals of the CIE colorimetry system is given in Ohno, Y., Paper for IS&T NIO16 Conference, Vancouver, Canada, Oct. 16-20, 2000, p. 1-5. The CIE b value was determined using a X-Rite® 918 apparatus (X-Rite Incorporated, 4300 44th St. SE, Grand Rapids, Mich. 49512 USA). A sample of 2 g of cefadroxil crystals was placed at the appropriate place of the apparatus and the CIE b value was read. The average of two separate readings was calculated.

Data set [3] can be described thus: Colour stability test, storage at 25° C. To be noted: stored at 25° C. The protocol: The CIE b value was determined using a X-Rite® 918 apparatus (X-Rite Incorporated, 4300 44th St. SE, Grand Rapids, Mich. 49512 USA). A sample of 2 g of cefadroxil crystals was placed at the appropriate place of the apparatus and the CIE b value was read. The average of two separate readings was calculated. The cefadroxil monohydrate crystals obtained with the one-step crystallisation process of Reference experiment A and a two-step crystallisation process according to the present invention were stored at 25° C.

Seven compounds from US20130217659A1, “PROCESS FOR THE CRYSTALLISATION OF CEFADROXIL MONOHYDRATE” (DSM SINOCHEM PHARMACEUTICALS NETHERLANDS B.V., priority 2006, published 2013) can be followed below.

Structures are written as SMILES.

In the case of `CC1=C(C(=O)O)N2C(=O)[C@@H](NC(=O)[C@H](N)c3ccc(O)cc3)[C@H]2SC1` [CDX (1), cefadroxil monohydrate], the CIE b was 4.8 in data set [1] (0 weeks, monohydrate); 6.6 in data set [1] (4 weeks, monohydrate); 9.1 in data set [1] (8 weeks, monohydrate); 10.4 in data set [1] (12 weeks, monohydrate); 12.4 in data set [1] (20 weeks, monohydrate); 12.9 in data set [1] (24 weeks, monohydrate).
As to `CC1=C(C(=O)O)N2C(=O)[C@@H](NC(=O)[C@H](N)c3ccc(O)cc3)[C@H]2SC1` [CDX (2), cefadroxil monohydrate], the CIE b is on record as 4.4 in data set [1] (0 weeks, monohydrate); 4.8 in data set [1] (2 weeks, monohydrate); 5.1 in data set [1] (4 weeks, monohydrate).
For `CC1=C(C(=O)O)N2C(=O)[C@@H](NC(=O)[C@H](N)c3ccc(O)cc3)[C@H]2SC1` [CDX (3), cefadroxil monohydrate] the same measures were 3.1, 3.0 and 4.6.
`CC1=C(C(=O)O)N2C(=O)[C@@H](NC(=O)[C@H](N)c3ccc(O)cc3)[C@H]2SC1` [Example 2, cefadroxil monohydrate] showed a CIE b value in data set [2] of 4.52.
As for `CC1=C(C(=O)O)N2C(=O)[C@@H](NC(=O)[C@H](N)c3ccc(O)cc3)[C@H]2SC1` [two-step crystallization process, cefadroxil monohydrate], the CIE b was 4.8 in data set [3] (0 months, monohydrate); 5.8 in data set [3] (3 months, monohydrate); 6.0 in data set [3] (6 months, monohydrate); 6.3 in data set [3] (9 months, monohydrate).
In turn, `CC1=C(C(=O)O)N2C(=O)[C@@H](NC(=O)[C@H](N)c3ccc(O)cc3)[C@H]2SC1` [Example 1, cefadroxil monohydrate] had a CIE b value in data set [2] of 4.68.
In data set [2], `CC1=C(C(=O)O)N2C(=O)[C@@H](NC(=O)[C@H](N)c3ccc(O)cc3)[C@H]2SC1` [Reference Experiment A, cefadroxil monohydrate] displayed a CIE b value of 6.2. Moreover, the CIE b in data set [1] (0 weeks, listed as CDX monohydrate crystals obtained by the one-step crystallisation process, monohydrate) amounted to 6.2; in data set [1] (2 weeks, listed as CDX monohydrate crystals obtained by the one-step crystallisation process, monohydrate), 10.0; in data set [1] (4 weeks, listed as CDX monohydrate crystals obtained by the one-step crystallisation process, monohydrate), 13.2; in data set [1] (6 weeks), 15.6; in data set [1] (8 weeks, listed as CDX monohydrate crystals obtained by the one-step crystallisation process, monohydrate), 17.0; in data set [1] (12 weeks) it was 14.2. For the same compound, the CIE b is on record as 18.2 in data set [1] (14 weeks); 18.6 in data set [1] (18 weeks); 19.1 in data set [1] (20 weeks, listed as CDX monohydrate crystals obtained by the one-step crystallisation process, monohydrate); 20.0 in data set [1] (24 weeks, listed as CDX monohydrate crystals obtained by the one-step crystallisation process, monohydrate); 6.2 in data set [3] (0 months, listed as one-step crystallization process, monohydrate); 14.0 in data set [3] (3 months, listed as one-step crystallization process, monohydrate). The CIE b in data set [3] (6 months, listed as one-step crystallization process, monohydrate) was found to be 14.7; in data set [3] (9 months, listed as one-step crystallization process, monohydrate) it was 15.1; in data set [3] (12 months) it was 15.5; in data set [3] (18 months) it was 17.7.
